Assay results as given in ChEMBL document CHEMBL1201862, “PubChem BioAssay data set” (2004).
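Cells were grown in 96-well plates and exposed to each compound for 48 hours at five concentrations; endpoints were interpolated linearly between bracketing concentrations, or set to the highest concentration if not reached. GI50 is the concentration that inhibits growth by half.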 Active and inactive are the calls of the source. No stated cut-off is given here; in the data, active = GI50 up to about 1.1 µM and inactive = higher.

Experiments:
Assay in all cases: growth of human tumour cells (NCI), 48 h
DU-145 = system: DU-145
HCT-15 = system: HCT-15
Hs-578T = system: Hs-578T
IGROV-1 = system: IGROV-1
K562 = system: K562
MDA-MB-231 = system: MDA-MB-231
MDA-MB-435 = system: MDA-MB-435
MDA-N = system: MDA-N
MOLT-4 = system: MOLT-4
NCI-H522 = system: NCI-H522
NCI/ADR-RES = system: NCI/ADR-RES
RPMI-8226 = system: RPMI-8226
SF-539 = system: SF-539
SNB-19 = system: SNB-19
SW-620 = system: SW-620
U-251 = system: U-251
UACC-257 = system: UACC-257
UACC-62 = system: UACC-62
UO-31 = system: UO-31
TK-10 = system: TK-10

Row | Compound | GI50 (DU-145) | GI50 (HCT-15) [µM] | GI50 (Hs-578T) | GI50 (IGROV-1) | GI50 (K562) | GI50 (MDA-MB-231) | GI50 (MDA-MB-435) | GI50 (MDA-N) | GI50 (MOLT-4) | GI50 (NCI-H522) | GI50 (NCI/ADR-RES) | GI50 (RPMI-8226) | GI50 (SF-539) | GI50 (SNB-19) | GI50 (SW-620) | GI50 (U-251) | GI50 (UACC-257) | GI50 (UACC-62) | GI50 (UO-31) | GI50 (TK-10)
1 | CC(=O)OCC1OC(NC(=S)Nn2c(-c3ccccc3)nc3ccccc3c2=O)C(OC(C)=O)C(OC(C)=O)C1OC(C)=O (stereo unspecified) | > 100 µM (inactive) | > 100 | 78.7 µM (inactive) | 33.8 µM (inactive) | > 100 µM (inactive) | 81.5 µM (inactive) | > 100 µM (inactive) | > 100 µM (inactive) | 46.9 µM (inactive) | 45.5 µM (inactive) | > 100 µM (inactive) | > 100 µM (inactive) | 37.8 µM (inactive) | > 100 µM (inactive) | > 100 µM (inactive) | > 100 µM (inactive) | > 100 µM (inactive) | 51.5 µM (inactive) | > 100 µM (inactive) | –
2 | COc1ccc(/N=C\c2ccc(N(CCC#N)CCC#N)cc2)cc1 | > 100 µM (inactive) | 17.4 | > 100 µM (inactive) | 82 µM (inactive) | 7.62 µM (inactive) | > 100 µM (inactive) | 32.8 µM (inactive) | 63.8 µM (inactive) | 66.5 µM (inactive) | > 95.1 µM (inactive) | > 100 µM (inactive) | 59 µM (inactive) | 27.9 µM (inactive) | 90.2 µM (inactive) | 61.1 µM (inactive) | > 83.2 µM (inactive) | > 100 µM (inactive) | 16.6 µM (inactive) | 44.5 µM (inactive) | 64.1 µM (inactive)
3 | CC1CC2OC(=N)C1(C#N)C2(C#N)C#N (stereo unspecified) | 56.6 µM (inactive) | 14 | 33.8 µM (inactive) | 20.3 µM (inactive) | 17.9 µM (inactive) | 17.2 µM (inactive) | 34 µM (inactive) | 16.3 µM (inactive) | 24.7 µM (inactive) | 13.5 µM (inactive) | 29.1 µM (inactive) | 16.4 µM (inactive) | 22.5 µM (inactive) | 34.8 µM (inactive) | 18.2 µM (inactive) | 27.9 µM (inactive) | 18.8 µM (inactive) | 23.4 µM (inactive) | 24.5 µM (inactive) | 26.8 µM (inactive)
4 | O=[N+]([O-])C(=C1NCCN1)C(Cl)=C(Cl)Cl | > 100 µM (inactive) | > 100 | > 100 µM (inactive) | > 100 µM (inactive) | > 100 µM (inactive) | > 100 µM (inactive) | > 100 µM (inactive) | > 100 µM (inactive) | 49.5 µM (inactive) | > 100 µM (inactive) | > 100 µM (inactive) | > 100 µM (inactive) | > 100 µM (inactive) | > 100 µM (inactive) | – | > 100 µM (inactive) | > 100 µM (inactive) | > 100 µM (inactive) | > 100 µM (inactive) | > 100 µM (inactive)
5 | NCCCN1c2ccccc2Sc2ccc(Cl)cc21 | > 10 µM (inactive) | 4.72 | 5.01 µM (inactive) | > 5.43 µM (inactive) | 2.63 µM (inactive) | 3.33 µM (inactive) | 1.93 µM (inactive) | 3.69 µM (inactive) | 2.88 µM (inactive) | 3.2 µM (inactive) | > 5.4 µM (inactive) | 3.95 µM (inactive) | 5.22 µM (inactive) | > 8.45 µM (inactive) | 2.9 µM (inactive) | 5.38 µM (inactive) | > 6.19 µM (inactive) | > 7.31 µM (inactive) | 7.8 µM (inactive) | 5.96 µM (inactive)
6 | COc1cc(/C=C/c2sc3ccccc3[n+]2C)ccc1N(C)C | 13.6 µM (inactive) | 37.2 | 41.3 µM (inactive) | 7.41 µM (inactive) | 2.1 µM (inactive) | 6.14 µM (inactive) | 3.32 µM (inactive) | 2.48 µM (inactive) | 4.55 µM (inactive) | 3.01 µM (inactive) | > 10 µM (inactive) | 2.21 µM (inactive) | 17.3 µM (inactive) | 12.9 µM (inactive) | 5.07 µM (inactive) | 6.9 µM (inactive) | 2.96 µM (inactive) | 5.26 µM (inactive) | < 0.01 µM (active) | 13.2 µM (inactive)
7 | CCOC(=O)c1cn2c(n1)sc1c(Cl)c(Cl)ccc12 | 18.1 µM (inactive) | 5.07 | 5.33 µM (inactive) | 13.8 µM (inactive) | 3.96 µM (inactive) | 26.7 µM (inactive) | 3.31 µM (inactive) | 1.56 µM (inactive) | 8.71 µM (inactive) | 4.11 µM (inactive) | 8.38 µM (inactive) | 5.02 µM (inactive) | 6.76 µM (inactive) | 25.3 µM (inactive) | 5.13 µM (inactive) | 11 µM (inactive) | 28.2 µM (inactive) | 20.2 µM (inactive) | 13.4 µM (inactive) | 24.4 µM (inactive)
8 | COC1=CC(=O)c2c(O)c3c(c(O)c2C1=O)C[C@](C)(O)C[C@@H]3O | 4.11 µM (inactive) | 4.01 | 18.2 µM (inactive) | 4.61 µM (inactive) | 4.24 µM (inactive) | 7.74 µM (inactive) | 1.88 µM (inactive) | 1.88 µM (inactive) | 7.8 µM (inactive) | 4.52 µM (inactive) | 3.78 µM (inactive) | 8.11 µM (inactive) | 3.08 µM (inactive) | 4.92 µM (inactive) | 3.92 µM (inactive) | 4.69 µM (inactive) | 1.99 µM (inactive) | 1.46 µM (inactive) | 11.4 µM (inactive) | 23.2 µM (inactive)
9 | O=C(/C=C/c1cccc(Br)c1)N1CCN(CCOC(c2ccccc2)c2ccccc2)CC1 | 37.5 µM (inactive) | 27.6 | > 100 µM (inactive) | 81.7 µM (inactive) | 13 µM (inactive) | > 100 µM (inactive) | 38.7 µM (inactive) | 41.4 µM (inactive) | 6.53 µM (inactive) | 29.1 µM (inactive) | 35.6 µM (inactive) | 12.2 µM (inactive) | 18.4 µM (inactive) | > 100 µM (inactive) | 50.8 µM (inactive) | 35.3 µM (inactive) | 63.5 µM (inactive) | 25.9 µM (inactive) | 25.4 µM (inactive) | > 100 µM (inactive)
10 | Cc1ccc(-c2cc(N)n(-c3nc4c([nH]3)c(=O)n(C)c(=O)n4C)n2)cc1 | 6.35 µM (inactive) | 0.47 | 23 µM (inactive) | 2.2 µM (inactive) | 4.03 µM (inactive) | 8.97 µM (inactive) | 7.73 µM (inactive) | 5.98 µM (inactive) | 2.06 µM (inactive) | 29 µM (inactive) | 1.55 µM (inactive) | 6.81 µM (inactive) | 4.24 µM (inactive) | 8.55 µM (inactive) | – | 5.36 µM (inactive) | 15.3 µM (inactive) | 5.37 µM (inactive) | 2.78 µM (inactive) | 9.84 µM (inactive)
11 | C/C=C(\C)CC/C=C/CO[Si](C)(C)C(C)(C)C | > 100 µM (inactive) | > 100 | > 100 µM (inactive) | > 100 µM (inactive) | > 100 µM (inactive) | > 100 µM (inactive) | > 100 µM (inactive) | > 100 µM (inactive) | 39 µM (inactive) | > 100 µM (inactive) | > 100 µM (inactive) | > 100 µM (inactive) | > 100 µM (inactive) | > 100 µM (inactive) | > 100 µM (inactive) | – | 69 µM (inactive) | > 100 µM (inactive) | > 100 µM (inactive) | > 100 µM (inactive)
